# Assay results published in US20240384268A1, “Oligonucleotides” (Hudson Institute of Medical Research, priority 2021, published 2024).
# In the oligonucleotide strings, read from the 5' end, every base follows the letter of its sugar. An asterisk marks phosphorothioate; unmarked linkages are phosphodiester. Other units and linkages are bracketed, terminal groups are in braces. A string of capitals states the bases alone. e = 2'-O-(2-methoxyethyl) (MOE); d = 2'-deoxy (DNA); m = 2'-O-methyl
# Molecular target: T1, human TLR7 (Homo sapiens, UniProt Q9NYK1)
# T1 construct: HA; host or cells: 293XL-hTLR7-HA (HEK293)
# T1 sequence (Q9NYK1 27-1049): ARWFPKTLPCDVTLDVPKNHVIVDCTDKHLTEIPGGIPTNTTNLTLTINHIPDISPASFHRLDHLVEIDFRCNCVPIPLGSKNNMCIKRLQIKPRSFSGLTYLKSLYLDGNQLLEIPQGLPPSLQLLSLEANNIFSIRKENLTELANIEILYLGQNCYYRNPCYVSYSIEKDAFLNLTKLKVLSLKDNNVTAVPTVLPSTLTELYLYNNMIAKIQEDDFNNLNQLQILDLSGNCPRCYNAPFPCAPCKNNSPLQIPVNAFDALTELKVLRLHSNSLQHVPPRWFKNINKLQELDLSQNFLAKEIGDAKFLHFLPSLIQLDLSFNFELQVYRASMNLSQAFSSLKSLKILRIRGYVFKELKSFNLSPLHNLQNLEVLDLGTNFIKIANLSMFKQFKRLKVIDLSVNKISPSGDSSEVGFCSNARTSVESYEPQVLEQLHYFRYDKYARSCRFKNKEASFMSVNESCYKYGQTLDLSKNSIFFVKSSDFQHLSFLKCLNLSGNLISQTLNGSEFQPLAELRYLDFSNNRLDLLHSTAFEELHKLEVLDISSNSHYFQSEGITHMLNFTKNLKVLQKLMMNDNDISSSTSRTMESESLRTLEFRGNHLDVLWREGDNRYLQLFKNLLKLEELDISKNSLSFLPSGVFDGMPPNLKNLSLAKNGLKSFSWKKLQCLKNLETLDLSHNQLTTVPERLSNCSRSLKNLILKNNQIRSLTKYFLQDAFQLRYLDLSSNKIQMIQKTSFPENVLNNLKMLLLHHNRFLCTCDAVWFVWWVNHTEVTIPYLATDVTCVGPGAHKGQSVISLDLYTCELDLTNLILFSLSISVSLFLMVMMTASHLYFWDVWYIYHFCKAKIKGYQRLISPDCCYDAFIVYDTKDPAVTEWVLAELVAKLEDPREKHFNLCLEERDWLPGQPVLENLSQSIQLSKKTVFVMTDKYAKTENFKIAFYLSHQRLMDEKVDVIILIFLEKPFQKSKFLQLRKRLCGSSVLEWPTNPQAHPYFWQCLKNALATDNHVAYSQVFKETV
# Assay: HEK-TLR7 NF-κB-luciferase reporter, R848 stimulation
# Format: cell-based
# Settings: HEK-TLR7; 400 nM 5-nt 2′OMe oligo 6 h before R848 1 μg/ml
# Method: In such examples, inhibition of TLR7 activity can be identified by observation of an overall decreased TLR7 response of the cell population, or a lower proportion of cells having TLR7-positive activity as compared to positive control condition in which cells are treated with TLR7 agonist in the absence of the oligonucleotide (or in the presence of an appropriate control inhibitory agent). In one example, 293XLhTLR7 (referred to as HEK-TLR7) cells are transfected with pNF-κB-Luc4 reporter, incubated with an oligonucleotide, and then stimulated with R848. TLR7 activity can be determined by a luciferase assay, which measures activated NF-κB by luminescence. TLR7 activity can also be analysed by measuring cytokine levels, for example by ELISA. […] TLR7 activity may then be assessed by the gene or protein expression of TLR7-responsive genes, such as Tnfα and Oas3.
# (§1) For cGAS stimulations, cells were treated for indicated duration with ASOs, prior to transfection with ISD70 (human cells) or ISD45 (mouse cells) (the ASOs were not washed off prior to ISD transfection unless otherwise indicated). The cGAS ligands ISD45 (Stetson and Medzhitov, 2006) and ISD70 (also known as VACV-70 (Unterholzner et al., 2010)) (Table 1) were resuspended as follows: 5 1d of sense and 5 μl of antisense strands at 10 μg/μl were added to 90 μl PBS under sterile conditions, heated at 75° C. for 30 min, prior to letting cool down at room temperature and aliquoting (stock at 1 μg/1 l). The ISDs were transfected at a concentration of […] at a ratio of 1 μg:1 μl with Lipofectamine 2000 in Opti-MEM (Thermo Fisher Scientific). HEK-TLR3, HEK-TLR7 and […] were treated with indicated concentration of ASOs for 20-50 min, prior to stimulation with poly(I:C) (Invivogen), R848 (Invivogen), Motolimod (MedChemExpress) and the Class B CpG oligonucleotides ODN 2006 (synthesised by IDT and resuspended in RNase-free TE buffer [Table 1]), respectively. The TLR2/1 agonist PAM3CSK4 (Invivogen), the TLR4 agonist lipopolysaccharide (Invivogen), the Class B CpG oligonucleotides ODN 1826 (synthesised by IDT and resuspended in RNase-free TE buffer), the mouse Sting agonist DMXAA (Cayman) and the human STING agonist (compound #3 from (Raanjulu et al., 2018), referred to as GSK herein—kind gift from Cancer Therapeutics CRC, Australia) were used at indicated concentrations. Aspirin (Sigma—A2093) was resuspended in pure medium to 10 mM, filter sterilised and added to the cells at 2 mM final. All ASOs were synthesised by Integrated DNA Technologies (IDT), and resuspended in RNase-free TE buffer, pH 8.0 (Thermo Fisher Scientific). Cell viability was assessed by adding 1× fresh resazurin solution to the wells (10λ solution made up with 7 mg resazurin [Sigma—R7017] dissolved in 3.5 ml PBS, sterile filtered at […]) for 4 h, prior to reading at with a Fluostar OPTIMA (BMG LABTECH) plate-reader (fluorescence: Excitation 535 nm, Emission 590); wells with medium only and 1× resazurin were used as blanks.
# Following transfection, the cells were collected from the 6-wells and aliquoted into 96-wells, just before ASO and overnight TLR stimulation (as above described). Similarly, the LL171 cells expressing and ISRE-Luc reporter were treated overnight.
row,Substance,"inhibition of R848 sensing by TLR7, 6 h pre-treatment (in words)"
1,mC*mG*mU*mU*mU [ShortMut1v3],failed to do so
2,mG*mG*mU*mA*mU [ShortMut1],sufficient to inhibit R848 sensing

# Same assay, conditions: HEK-TLR7; 100-500 nM oligo 20-50 min before R848 1 μg/ml
row,Substance,"inhibition of R848 sensing by TLR7, short pre-treatment (in words)"
1,"/52MOErT/*/i2MOErG/*/i2MOErT/*/i2MOErC/*/i2MOErC/*T*T*G*C*A*C*G*T*G*C*/i2MOErC/*/i2MOErT/*/i2MOErA/*/i2MOErA/*/32MOErG/ (TGTCCTTGCACGTGCCTAAG; sugars from the 5' end e5 d10 e5, all phosphorothioate, methylation of C not given here) [F5-Mut]",significantly less inhibitory
2,mG*mG*mU*mA*mU [ShortMut1],no inhibition was observed

# Molecular target: T2, human TLR9 (Homo sapiens, UniProt Q9NR96)
# T2 construct: HA; host or cells: 293XL-hTLR9-HA (HEK293)
# T2 sequence (Q9NR96 26-1032): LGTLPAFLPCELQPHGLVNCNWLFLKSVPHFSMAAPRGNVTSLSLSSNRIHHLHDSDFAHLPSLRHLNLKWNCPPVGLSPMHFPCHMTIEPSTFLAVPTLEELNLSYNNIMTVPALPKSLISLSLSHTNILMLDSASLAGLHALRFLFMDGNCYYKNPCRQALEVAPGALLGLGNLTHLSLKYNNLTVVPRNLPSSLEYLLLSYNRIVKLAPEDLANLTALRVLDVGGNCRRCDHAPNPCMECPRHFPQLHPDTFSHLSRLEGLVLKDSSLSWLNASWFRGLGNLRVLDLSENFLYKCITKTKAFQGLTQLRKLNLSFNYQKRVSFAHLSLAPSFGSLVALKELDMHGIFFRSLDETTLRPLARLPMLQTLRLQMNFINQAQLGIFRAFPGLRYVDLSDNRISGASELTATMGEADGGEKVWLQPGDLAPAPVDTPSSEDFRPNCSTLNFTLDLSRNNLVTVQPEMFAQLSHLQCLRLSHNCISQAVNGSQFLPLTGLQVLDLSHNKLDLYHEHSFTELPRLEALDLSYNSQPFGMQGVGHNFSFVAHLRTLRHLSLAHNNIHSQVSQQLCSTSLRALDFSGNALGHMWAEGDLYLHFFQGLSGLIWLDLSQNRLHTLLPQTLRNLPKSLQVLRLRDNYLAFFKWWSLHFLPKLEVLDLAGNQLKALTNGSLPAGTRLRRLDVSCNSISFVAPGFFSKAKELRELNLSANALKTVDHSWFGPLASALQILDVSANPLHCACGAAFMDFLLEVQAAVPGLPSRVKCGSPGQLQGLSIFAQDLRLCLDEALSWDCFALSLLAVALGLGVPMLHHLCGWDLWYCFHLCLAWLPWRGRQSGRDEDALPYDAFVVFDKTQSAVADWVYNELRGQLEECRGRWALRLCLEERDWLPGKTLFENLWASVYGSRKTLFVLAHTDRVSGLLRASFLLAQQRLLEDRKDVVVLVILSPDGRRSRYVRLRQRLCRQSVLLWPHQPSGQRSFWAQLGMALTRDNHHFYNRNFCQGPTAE
# Assay: HEK-TLR9 NF-κB-luciferase reporter, ODN2006 stimulation
# Format: cell-based
# Settings: HEK-TLR9; 500 nM 2′OMe or PS oligos; 200 nM ODN2006
# Method: In such examples, inhibition of TLR9 activity can be identified by observation of an overall decreased TLR9 response of the cell population, or a lower proportion of cells having TLR9-positive activity as compared to positive control condition in which cells are treated with TLR9 agonist in the absence of the oligonucleotide (or in the presence of an appropriate control inhibitory agent). In one example, HEK cells are transfected with TLR9 and a NF-κB reporter and incubated with an oligonucleotide and then stimulated with a TLR9 agonist. TLR9 activity can then be determined by a luciferase assay. TLR9 activity can also be analysed by measuring cytokine levels (e.g., IFN, IL-6, TNF and IL-12), for example by ELISA.
# as §1
# Following transfection, the cells were collected from the 6-wells and aliquoted into 96-wells, just before ASO and overnight TLR stimulation (as above described). Similarly, the LL171 cells expressing and ISRE-Luc reporter were treated overnight. The next day, the cells were lysed in 40 μl (for a 96-well plate) of 1× Glo Lysis buffer (Promega) for 10 min at room temperature. […] was then subjected to firefly luciferase assay using 40 μl of Luciferase Assay Reagent (Promega). Luminescence was quantified with a Fluostar OPTIMA (BMG LABTECH) luminometer.
row,Substance,inhibition of TLR9 sensing of ODN2006 (in words)
1,"mA*mC*mU*mU*mC*G*T*G*G*G*G*T*C*C*T*mU*mU*mU*mC*mA (ACUUCGTGGGGTCCTUUUCA; antisense; sugars from the 5' end m5 d10 m5, all phosphorothioate, methylation of C not given here) [[HPRT]661]",significantly limited inhibition
2,"mC*mA*mA*mC*mA*C*T*T*C*G*T*G*G*G*G*mU*mC*mC*mU*mU (CAACACTTCGTGGGGUCCUU; antisense; sugars from the 5' end m5 d10 m5, all phosphorothioate, methylation of C not given here) [[HPRT]665]",only poorly inhibitory
3,"mC*mA*mC*mU*mU*C*G*T*G*G*G*G*T*C*C*mU*mU*mU*mU*mC (CACUUCGTGGGGTCCUUUUC; antisense; sugars from the 5' end m5 d10 m5, all phosphorothioate, methylation of C not given here) [[HPRT]662]",strongest inhibition of this series of ASOs
4,mC*mA*mU*mU*mA*G*G*T*G*C*A*G*A*A*A*mU*mC*mU*mU*mC (mC*mA*mU*mU*mA*dG*dG*dT*dG*dC*dA*dG*dA*dA*dA*mU*mC*mU*mU*mC) [ASO8],significantly inhibited TLR9 sensing of ODN2006
5,"mC*mC*mA*mA*mC*A*C*T*T*C*G*T*G*G*G*mG*mU*mC*mC*mU (CCAACACTTCGTGGGGUCCU; antisense; sugars from the 5' end m5 d10 m5, all phosphorothioate, methylation of C not given here) [[HPRT]666]",strongly inhibited TLR9
6,mG*mC*mG*mG*mU*A*T*C*C*A*T*A*G*T*C*mU*mC*mC*mA*mU (mG*mC*mG*mG*mU*dA*dT*dC*dC*dA*dT*dA*dG*dT*dC*mU*mC*mC*mA*mU; antisense) [C2-ASO2-A],significantly better inhibitors of TLR9 than their parent ASO
7,mG*mG*mA*mG*mC*T*T*C*G*A*G*G*C*C*C*mC*mA*mG*mG*mC (mG*mG*mA*mG*mC*dT*dT*dC*dG*dA*dG*dG*dC*dC*dC*mC*mA*mG*mG*mC; antisense) [ASO6],significantly inhibited TLR9 sensing of ODN2006
8,mG*mG*mU*mG*mG*T*C*C*A*C*A*A*C*C*C*mC*mU*mU*mU*mC (mG*mG*mU*mG*mG*dT*dC*dC*dA*dC*dA*dA*dC*dC*dC*mC*mU*mU*mU*mC; antisense) [ASO7],significantly inhibited TLR9 sensing of ODN2006
